# Assay results taken from patent US5231216A, “Trans-2-acylaminocyclohexyloxyacyldipeptides in the form of mixtures of diastereoisomers thereof and in the form of pure diasteredisomers, process for the preparation thereof and pharmaceutical compositions containing the same” (Univerza Edvarda Kardelja v Ljubljana, priority 1990, dated 1993).
# Where two headings read alike, the source gives them in different places.
# Tests used:
# [1] = Toxicity, average lethal dose (LD50); format: in vivo; details: i.v. application, male mice
# Procedure: The average lethal dose (LD50) at i.v. application of the compound 1 in male mice was >500 mg/kg.
# [2] = system: lymphocytes B; assay: Determination of haemolytic plaques for the assessment of the maturation of lymphocytes B; format: in vivo, female HAN-NmRI strain mice; details: evaluation summary
# Procedure: (§1) Immunological studies were performed on female HAN-NmRI strain mice of 3-4 weeks, weighing from 17-20 g.
# A 1% suspension of sheep erythrocytes (Institute of Microbiology, Faculty of Medicine, Ljubljana, Yugoslavia) in physiological saline was used for the immunisation. First, individual mice were administered 0.2 ml of this suspension by i.p. injection, followed next day by 0.1 ml (1 μg/mouse) of the test substance. The immunisation was completed on the fifth day after the administration of sheep erythrocytes and the mice were sacrificed.
# Their spleens were removed and homogenized in Parker 199 Medium with added aminoacids, streptomycin and sodium carbonate (Torlak, Beograd, Yugoslavia). The lymphocytes were separated on the Ficol Separating Medium (Pharmacia, Uppsala, Sweden). After repeated rinsing with Parker 199 Medium, the cells were resuspended in RPMI 1640 nutrient medium with added 10% of foetal calf serum and streptomycin. To 50 μl of the cell suspension, 450 μl of trypan blue were added and the cells were counted in Neubauer's chamber. The number of lymphocytes per ml of the cell suspension was calculated. […] After the completion of the incubation, the plaques were counted under microscope.
# The number of plaques per 1×10^6 cells was calculated according to the following equations: [formula]
# [3] = system: peritoneal macrophages; assay: Activation of peritoneal macrophages (ferricytochrome C reduction) without additional PMA stimulation; format: in vivo, female HAN-NmRI strain mice; details: for Difference in absorbancies of the test sample and of the blank per mg of cell protein, x ± s.e.m (n): control 275 ± 26
# Procedure: as §1
# (§2) In tests 1.1 to 1.5, the animals were first administered the Brewer's thioglycolate medium by i.p. injection, which was followed after 6 hours by the injection of 0.5 ml of a solution containing 25 μg, 2.5 μg and 0.25 μg respectively of N-acetyl-muramyl-L-alanyl-D-isoglutamine (muramyl dipeptide, MDP) or of N-[trans-2-(2'-acetylaminocyclohexyloxy)acetyl]-L-alanyl-D-glutaminic acid (compound 1, Example 12B). Equal doses were administered to the animals on days 2 and 3. On day 4 the animals were sacrificed and the spleen and the peritoneal macrophages were isolated.
# (§3) The peritoneal cavity of the animals was rinsed with 4 ml of ice-cold RPMI 1640 medium. The cytolysis of erythrocytes was effected with 0.2% NaCl. The remaining cells were washed twice in a cooled centrifuge at 4° and 1500 rpm for 5 minutes with ice-cold RPMI 1640 medium. The cells were re-suspended and the concentration was adjusted to 1.5×10^6 /ml. The cell suspension was distributed among the flat bottom wells of a microtitration palte (T grade, Nunc, Denmark). After incubating for 2 hours at 37° C., 5% CO2 and 95% humidity, the wells were rinsed with warm RPMI 1640 medium and the adhering macrophages were used for testing.
# (§4) After incubating for 90 minutes at 37° C., 5% CO2 and 95% humidity, the absorbance was measured at the wavelength of 570 nm.
# (§5) The results are shown in Table 2 as the difference in the absorbance of the test sample and of the blank, calculated for 1 mg of cell protein.
# [4] = system: Fibrosarcoma SA-1; details: for Time needed for the tumour growth to the volume of 150 mm^3, Number of days (± SD) / Growth delay (± SD): 5 doses; for Time needed for the tumour growth to the volume of 150 mm^3, Number of days (± SD): control 5.5 ± 0.8
# Procedure: The studies were performed on A/J strain mice (Institute Rudjer Boskovic, Zagreb, Yugoslavia) of 8 to 10 weeks. All animals used in the same experiment were of the same sex and age.
# Fibrosarcoma SA-1 was used as the experimental tumour model. Tumorous cells were obtained from the ascitic form of the SA-1 tumour of the syngeneic A/J mouse. They were implanted into animals dorsilaterally by s.c. injection of 5×10^5 tumour cells. The testing was started after the tumours had grown to a volume of 35 mm^3. The test substance was injected i.p. on five consecutive days in a dose of 2.5 or 25 μg. The growth of the tumours was monitored by measuring the diameters and the thickness of the tumours. The tumour volumes were calculated according to the formula 0.523×a×b×c (a, b and c being the tumour diameters).
# The delay in the growth of each individual tumour was obtained by deducting the relevant time of growth of the tumour in the control group from the time needed for the growth of the tumour to reach the volume of 150 mm^3.
# [5] = system: splenic lymphocytes T; assay: Determination of the number of lymphocytes T (splenic, fluorescence microscopy); format: in vivo, female HAN-NmRI strain mice; details: daily doses 25, 2.5 and 0.25 μg on 3 days; spleen isolated on day 4
# Procedure: as §1, §2
# (§6) To the isolated splenic lymphocytes there were added fluorescein isothiocyanate labelled antimouse antibodies (for the determination of lymphocytes B) and anti-Thy 1 monoclonal antibodies (for the determination of lymphocytes T) respectively. After incubation and rinsing with RPMI 1640 medium (Gibco, Great Britain), the lymphocytes were counted by fluorescence microscopy.
# [6] = system: splenic lymphocytes B; assay: Determination of the number of lymphocytes B (splenic, fluorescence microscopy); format: in vivo, female HAN-NmRI strain mice; details: daily doses 25, 2.5 and 0.25 μg on 3 days; spleen isolated on day 4
# Procedure: as §1, §2, §6
# [7] = system: splenic lymphocytes (lymphocytes T) stimulated with concanavalin A; assay: Blast transformation of lymphocytes stimulated in vitro with concanavalin A after in vivo treatment; design: species or system female HAN-NmRI strain mice; details: for Amount of active thymidine incoporated in lymphocyte DNA (cpm), x ± s.e.m (n): control 10130 ± 476
# Procedure: as §1, §2
# Isolated splenic lymphocytes were prepared in a concentration of 1×10^6 /ml in the RPMI 1640 medium, to which there were added 10% of foetal calf serum (FCS) (Sera-Lab, Great Britain), 1 ml of 200 mM L-glutamine solution and 1 ml of an antibiotic solution (100 U/ml of penicillin and 100 μg/ml of streptomycin) for 100 ml of complete medium. To each flat bottom well of a microtitration plate (T grade, Nunc, Denmark) 100 μl of the cell suspension were distributed. The cells were stimulated in vitro by adding concanavalin A (con A)(Pharmacia, Sweden) at respective concentrations of 16, 8, and 4 μg/ml. Control lymphocyte cultures were grown in basal medium only. The cells were then incubated at 37° C., 5% CO2 and 95% humidity for 2 days, followed by the addition of tritium labelled thymidine. After 16 hours the samples were prepared for the measurement in a β-counter. The results were expressed as incorporation indexes with respect to the control group of the animals.
# [8] = system: peritoneal macrophages; assay: Determination of the number of macrophages in peritoneal cavity washings; format: in vivo, female HAN-NmRI strain mice; details: daily doses 25, 2.5 and 0.25 μg on 3 days; after Brewer's thioglycolate stimulation
# Procedure: as §1, §2
# The number of macrophages in the peritoneal cavity washings was determined three days after the stimulation with Brewer's thioglycolate medium. The cells were suspended in ice-cold RPMI 1640 medium, to which trypan blue was added, and counted in Neubauer's chamber.
# [9] = Pyrogenous activity according to USP XXII; format: in vivo; details: method of USP XXII
# Procedure: The pyrogenous activity was determined according to the method of USP XXII.
# [10] = system: peritoneal macrophages; assay: Activation of peritoneal macrophages (ferricytochrome C reduction) with additional in vitro PMA stimulation; format: in vivo, female HAN-NmRI strain mice; details: for Difference in absorbancies of the test sample and of the blank per mg of cell protein, x ± s.e.m (n): control 1004 ± 38
# Procedure: as §1, §2, §3, §4, §5
# [11] = daily dose 0.25 μg for 3 consecutive days
# [12] = daily dose 2.5 μg for 3 consecutive days
# [13] = daily dose 25 μg for 3 consecutive days
structure (smiles),measurement,setting,value
"CC(=O)N[C@@H]1CCCC[C@H]1OCC(=O)N[C@@H](C)C(=O)N[C@H](CCC(=O)O)C(=O)O (relative stereo) [Compound 1, N-[trans-2-(2'-acetylaminocyclohexyloxy)acetyl]-L-alanyl-D-glutaminic acid]",average lethal dose (LD50),[1],> 500 mg/kg
same,maturation of lymphocytes B to plasma cells,[2],enhances the muturation of lymphocytes B to plasma cells
same,"Difference in absorbancies of the test sample and of the blank per mg of cell protein, x ± s.e.m (n)",[3]; daily dose 0.25 μg,237 ± 94
same,"Difference in absorbancies of the test sample and of the blank per mg of cell protein, x ± s.e.m (n)",[3]; daily dose 2.5 μg,431 ± 85
same,"Difference in absorbancies of the test sample and of the blank per mg of cell protein, x ± s.e.m (n)",[3]; daily dose 25 μg,489 ± 97
same,increase of macrophage activity,"[3]; dose 2.5 μg, p<0.06",55%
same,difference in macrophage activation between muramyl dipeptide and compound 1,[3]; dose 25 μg,no statistically significant different
same,increase of macrophage activity,"[3]; dose 25 μg, p<0.05",70%
same,"Time needed for the tumour growth to the volume of 150 mm^3, Number of days (± SD)",[4]; 2.5 μg daily i.p.,6.4 ± 0.9 days
same,Growth delay (± SD),"[4]; 2.5 μg daily i.p., p<0.2 compared with control",0.9 ± 0.4
same,"Time needed for the tumour growth to the volume of 150 mm^3, Number of days (± SD)",[4]; 25.0 μg daily i.p.,7.3 ± 1.3 days
same,Growth delay (± SD),"[4]; 25.0 μg daily i.p., p<0.002 compared with control",1.8 ± 0.4
same,difference in antitumour activity between the higher and the lower dose,[4]; 25 μg versus 2.5 μg,no statistically significant difference in activity between the higher and the lower dose
same,delay in tumour growth in combination with tumour necrosis factor,[4]; compound 1 2.5 μg combined with recombinant tumour necrosis factor α (5×10^5 U),increased delay in tumour growth
same,antitumour activity in comparison to the control,"[4]; dose 25 μg, p<0.002",moderate and statistically significant
same,number of splenic lymphocytes T,[5],Neither the number of splenic lymphocites B nor of lymphocytes T was altered to a statistically significant extent
same,number of splenic lymphocytes B,[6],Neither the number of splenic lymphocites B nor of lymphocytes T was altered to a statistically significant extent
same,"Amount of active thymidine incoporated in lymphocyte DNA (cpm), x ± s.e.m (n)",[7]; [11],10780 ± 2680 cpm
same,"Amount of active thymidine incoporated in lymphocyte DNA (cpm), x ± s.e.m (n)",[7]; [12],16830 ± 6610 cpm
same,"Amount of active thymidine incoporated in lymphocyte DNA (cpm), x ± s.e.m (n)",[7]; [13],25990 ± 7850 cpm
same,immunomodulatory effect in lymphocytes T compared with MDP,[7]; dose 25 μg,statistically greater (p<0.05) immunomodulatory effect
same,increase of the blastic activity of lymphocytes T,"[7]; dose 25 μg, p<0.05, versus control",about 150%
same,number of peritoneal macrophages,[8],not altered to a statistically significant extent
same,pyrogenous activity,[9],did not show any pyrogenous activity
same,"Difference in absorbancies of the test sample and of the blank per mg of cell protein, x ± s.e.m (n)",[10]; [11],1298 ± 334
same,"Difference in absorbancies of the test sample and of the blank per mg of cell protein, x ± s.e.m (n)",[10]; [12],1494 ± 199
same,"Difference in absorbancies of the test sample and of the blank per mg of cell protein, x ± s.e.m (n)",[10]; [13],1709 ± 374
same,increase of macrophage activity,"[10]; dose 2.5 μg, p<0.05",50%
same,difference in macrophage activation between muramyl dipeptide and compound 1,[10]; dose 25 μg,no statistically significant different
same,increase of macrophage activity,[10]; dose 25 μg,70%
